Test results taken from US9255257B2, “PmST1 mutants for chemoenzymatic synthesis of sialyl lewis X compounds” (THE REGENTS OF THE UNIVERSITY OF CALIFORNIA, priority 2011, dated 2016).

How the values were obtained:
[1] = target: T1, Pasteurella multocida PmST1 mutant M144H of SEQ ID NO: 13 (M120H of Δ24PmST1, SEQ ID NO: 5) (Pasteurella multocida, UniProt Q15KI8, M144H); test: α2-3-sialyltransferase activity, LacβMU as acceptor; assay type: biochemical; details: apparent, donor, LacβMU 1 mM, Tris-HCl pH 8.5, 37° C.
Experimental: (§1) Site-directed mutagenesis, expression and purification of PmST1 mutants. Site-directed mutagenesis was performed using the QuikChange multi-site-directed mutagenesis kit from Stratagene according to the manufacturer's protocol. The primers used were 5′-[…]-3′ (SEQ ID NO:35) for M144D; 5′-[…]a[…] -3′ (SEQ ID NO:36) for M144H; 5′-[…]-3′ (SEQ ID NO:37) for A35D; and 5′-[…]-3′ (SEQ ID NO:38) for A35H. The expression and purification of the mutants were performed as previously described for the WT PmST1 .
(§2) Kinetics of the α2-3-sialyltransferase activity of PmST1 mutants by HPLC analysis. With LacβMU as the acceptor substrate, the reactions were performed in duplicate at 37° C. for 10 min (M144D) or 4 min (M144H) in a reaction mixture (10 μL) containing Tris-HCl (100 mM, pH 8.5), an enzyme (5 μg mL^−1), and different concentrations (0.2, 0.5, 1.0, 2.0, and 5.0 mM) of LacβMU with a fixed concentration (1 mM) of CMP-Neu5Ac or different concentrations (0.2, 0.5, 1.0, 2.0, 5.0, and 10.0 mM) of CMP-Neu5Ac with a fixed concentration (1 mM) of LacβMU. With Le^xβMU as the acceptor substrate, the reactions were carried out in duplicate at 37° C. for 9 min (M144D) or 10 min (M144H) in a reaction mixture (10 μL) containing CAPSO (100 mM, pH 9.5), an enzyme (M144D, 39 μg mL^−1 or M144H, 5 μg mL^−), and various concentrations of Le^xβMU (1.0, 5.0, 10.0, 15.0, 25.0, and 35.0 mM) with a fixed concentration (1 mM) of CMP-Neu5Ac or various concentrations (0.2, 0.5, 1.0, 2.0, 5.0, 10.0, 20.0, and 40.0 mM) of CMP-Neu5Ac with a fixed concentration (1 mM) of Le^xβMU. Reactions were stopped by adding 10 μL of pre-chilled ethanol. The mixtures were incubated on ice for 30 min and centrifuged at 13,000 rpm for 5 min. The supernatants were diluted with 25% acetonitrile and kept on ice until aliquots of 8 μL were injected and analyzed by the Shimadzu LC-6AD system equipped with a membrane on-line degasser, a temperature control unit, and a fluorescence detector (Shimadzu RF-10AXL). A reverse-phase Premier C18 column (250×4.6 mm i.d., 5 μm particle size, Shimadzu) protected with a C18 guard column cartridge was used. The mobile phase was 25% acetonitrile. The fluorophore (MU)-labeled compounds were detected by excitation at 325 nm and emission at 372 nm. The apparent kinetic parameters were obtained by fitting the experimental data (the average values of duplicate assay results) into the Michaelis-Menten equation using Grafit 5.0.

[2] = target: T2, Pasteurella multocida PmST1 mutant M144D of SEQ ID NO: 13 (M120D of Δ24PmST1, SEQ ID NO: 3) (Pasteurella multocida, UniProt Q15KI8, M144D); test: as above; assay type: biochemical; details: apparent, donor, LacβMU 1 mM, Tris-HCl pH 8.5, 37° C.
Experimental: as §1, §2

[3] = target: T1, Pasteurella multocida PmST1 mutant M144H of SEQ ID NO: 13 (M120H of Δ24PmST1, SEQ ID NO: 5); test: α2-3-sialyltransferase activity, Le^xβMU as acceptor; assay type: biochemical; details: apparent, donor, Le^xβMU 1 mM, CAPSO pH 9.5, 37° C.
Experimental: as §1, §2

[4] = target: T2, Pasteurella multocida PmST1 mutant M144D of SEQ ID NO: 13 (M120D of Δ24PmST1, SEQ ID NO: 3); test: as above; assay type: biochemical; details: apparent, donor, Le^xβMU 1 mM, CAPSO pH 9.5, 37° C.
Experimental: as §1, §2

[5] = target: T1, Pasteurella multocida PmST1 mutant M144H of SEQ ID NO: 13 (M120H of Δ24PmST1, SEQ ID NO: 5); test: CMP-Neu5Ac (donor) hydrolysis activity, capillary electrophoresis; assay type: biochemical; details: apparent, Tris-HCl pH 8.5, 37° C., 15 min
Experimental: as §1
(§3) Kinetics of the donor hydrolysis activity of PmST1 and mutants by capillary electrophoresis analysis. […] The reactions were stopped by adding 10 μL of pre-chilled ethanol. The mixtures were incubated on ice for 30 min and centrifuged at 13,000 rpm for 5 min. The supernatants were diluted with borate buffer (25 mM, pH 9.5) and aliquotes of 5 μL each were injected to a Beckman Coulter P/ACE™ MDQ Capillary Electrophoresis system equipped with a capillary (60 cm×75 μm i.d.) and monitored at 254 nm. The apparent kinetic parameters were obtained by fitting the experimental data (the average values of duplicate assay results) into the Michaelis-Menten equation using Grafit 5.0.

[6] = target: T2, Pasteurella multocida PmST1 mutant M144D of SEQ ID NO: 13 (M120D of Δ24PmST1, SEQ ID NO: 3); test: as above; assay type: biochemical; details: apparent, Tris-HCl pH 8.5, 37° C., 15 min
Experimental: as §1, §3

[7] = target: Pasteurella multocida α2-3-sialyltransferase 1 (PmST1), wild type (WT), SEQ ID NO: 13 (Pasteurella multocida, UniProt Q15KI8); details: apparent, donor, with LacβMU, read-out: Km for CMP-Neu5Ac; cited from earlier work
[8] = target: Pasteurella multocida PmST1 mutant D141A (Pasteurella multocida, UniProt Q15KI8, D141A); test: CMP-Neu5Ac (donor) hydrolysis activity, capillary electrophoresis; details: apparent, Tris-HCl pH 8.5, 37° C., 40 min

In the case of CC(=O)N[C@H]1[C@H]([C@H](O)[C@H](O)CO)O[C@](OP(=O)(O)OC[C@H]2O[C@@H](n3ccc(N)nc3=O)[C@H](O)[C@@H]2O)(C(=O)O)C[C@@H]1O [CMP-Neu5Ac], the “kcat (CMP-Neu5Ac)” value [1] is reported as 21 ± 1 s⁻¹, the “kcat (CMP-Neu5Ac)” value [2] is reported as 1.9 ± 0.1 s⁻¹ and the “kcat (CMP-Neu5Ac)” value [3] is reported as 0.93 ± 0.02 s⁻¹. The “kcat (CMP-Neu5Ac)” value [4] was 0.59 ± 0.01 s⁻¹, the kcat [5] was 71 ± 6 s⁻¹ and the kcat [6] was 6.5 ± 0.1 s⁻¹. For the same compound, the Km [7] was 440 µM and the kcat [8] was “(2.5 ± 0.1) × 10^−2 s^−1”.
